From patent US20250145961A1, “GENERATING BONE MARROW ORGANOIDS” (The University of Birmingham, priority 2022, published 2025)

How the values were obtained:
Format in all cases: cell-based, human
bone marrow organoids = assay: TGFβ-induced fibrosis of bone marrow organoids (immunofluorescence, qRT PCR); details: for TGFβ-induced collagen deposition / TGFβ-induced αSMA expression: bone marrow organoids stimulated with TGFβ, N=4 and 3 respectively, Kruskal-Wallis with multiple comparisons
Source text: FIG. 7: Treatment of organoids with TGFβ induced fibrosis of the organoids, modelling bone marrow fibrosis seen in patients. […] Increase of signal in these images is indicative of treatment inducing classic markers of fibrosis. […] Finally, we confirmed the utility of this model to screen for potential inhibitors of bone marrow fibrosis. […] (N=4 and 3 respectively, significance testing with Kruskal-Wallis with multiple comparisons).
To model myelofibrosis (MF), we treated bone marrow organoids with Transforming Growth Factor β (TGFβ, Peprotech) at various concentrations for 72 hours. Treated organoids were maintained in this media before collection via pasteurette and fixation for immunofluorescence (whole organoids or embedded sections), or centrifugation for RNA extraction and subsequent quantitative Real Time Polymerase Chain Reaction (qRT PCR assessment of changes in gene expression). RNA extraction was performed using the Qiagen RNAEasy micro kit to the manufacturer's instructions.
qRT-PCR was performed on an Applied Biosystems 7500 Fast Real Time PCR System. Primers were obtained from Integrated DNA Technologies (IDT) as pre-validated PrimeTime qPCR primers. Reactions were prepared from lug of isolated RNA converted to cDNA with the High Capacity cDNA Reverse Transcription Kit (Applied Biosystems) under manufacturer recommended thermal cycling conditions. Synthesised cDNA was diluted 5-fold and stored at −20° C. until required.
A master mix was prepared for each qPCR reaction which was made up of 10 μl TaqMan® Universal Primer MasterMix (thermos), 1 μl of forward and reverse primers, and 2 μl of cDNA at a final concentration of 5 ng/mL. Calculations for fold changes in expression were performed using the ΔΔCT method, with human GAPDH used as a housekeeping gene, and undifferentiated iPSC used as controls for expression levels.
Immunofluorescence was performed using a Zeiss LSM880 confocal microscope (25×0.8 LD LCI plan apo 0.8 dual immersion objective). Samples were prepared first by fixation in 10% formalin, before 3×5 min successive washes with PBS. Samples were then blocked overnight in a detergent blocking solution comprised of 2% goat serum (Thermo), 1% Bovine Serum Albumin (BSA) in 50 mL of PBS. 250 μl of Triton X100 and Tween-20 (Sigma) were added, as well as 500 μl sodium deoxycholate (Sigma) to permeabilise samples and encourage antibody preparation. Primary antibody incubations were performed overnight at 4° C., before 4×5-minute successive washes in PBS. Samples were then incubated overnight once more at 4° C. in secondary antibody mixes: DAPI for nuclear labelling, Alexa-488, Alxea-568, and Alexa-647 (Thermo) depending on the species mix of antibodies present.

MF-patient organoids = assay: Bone marrow organoids engrafted with CD34+ cells from patients with myelofibrosis, screen of potential therapies (immunofluorescence of paraffin embedded sections); details: organoids seeded with MF patient cells for 14 days, treatment at day 7 post engraftment, 0.1 and 1 uM, vs DMSO treated
Protocol: FIG. 12: Organoids engrafted with CD34^+ cells from patients with myelofibrosis can be used to screen potential therapies in a patient specific approach. Bone marrow organoids were seeded with cells from patients with myelofibrosis for 14 days in total, with pharmacological interventions staged at day 7 post engraftment. […] Samples were also treated with the inhibitor SB431542, the BET bromodomain inhibitor JQ1, and the current clinical treatment for myelofibrosis ruxolitinib (at 0.1 and 1 uM respectively). […] (B) Representative immunofluorescence imaging of paraffin embedded sections.
Cells were isolated from cryopreserved peripheral blood or bone marrow mononuclear cells and stained with CellVue Claret Far Red Fluorescent Cell Linker Mini Kit for General Membrane Labeling (Sigma Aldrich, Cat #MINCLARET-1KT) following the instructions provided by the manufacturer. Organoids were seeded with 5000 cells per wells and cultured for 8-14 days in StemPro. On collection day, organoids were fixed for imaging or digested for assessment by flow cytometry or RNA extraction and qRT PCR.
Sections were blocked using 2% Goat Serum (Thermo Fisher Scientific, Cat #31872) 1% Bovine Serum Albumin (BSA) (Sigma, Cat #A9418) prior to primary antibody labelling with antibody diluted in 1% BSA, sequential PBS washes, and finally secondary labelling with AlexaFluor conjugates. […]

organoid endothelium = assay: Addition of VEGFC to the organoid growth factor cocktail, specialisation of organoid endothelium
Source text: FIG. 4: Addition of VEGFC induces specialisation of organoid endothelium to resemble bone marrow sinusoidal endothelium. The protocol thus far generated an organoid producing the key lineages of the central human bone marrow. However, bone marrow sinusoidal endothelium, is a highly specialised for regulating haematopoeitic cell behaviours.
FIG. 5: VEGFC induces development of CD34+ sinusoidal vascular network in organoids. […] Immunofluorescence images show significant staining of the vessels in the VEGFA+C treated sample when compared to VEGFA. (B) Close association of CD41+ megakaryocytes with vessels in the organoids. […] (C) CD41+ megakaryocytes are shown forming pro-platelet extensions in sections of BM organoids.
Once fully polymerised, 3D cultures were supplemented in Phase III sprouting medium which was comprised of APELII medium supplemented with 5% Foetal Bovine Serum (FBS), 5 U/mL Heparin Sulfate, 50 ng VEGFA, 10 ng each Interleukin 3 (IL3) and Interleukin 6 (IL6), as well as 25 ng each of SCF, Flt3, Thrombopoietin (TPO), Erythropoietin (EPO), Granulocyte Colony Stimulating Factor (G-CSF) (Stem Cell Technologies), FGF2, and BMP4. Cells were maintained in this media formulation until d12, with media changes every 72 hours. From d5 onwards, media changes are performed as 60:40 splits fresh: conditioned medium. […]

NC(=O)c1ccc(-c2nc(-c3ccc4c(c3)OCO4)c(-c3ccccn3)[nH]2)cc1 [SB431542]
TGFβ-induced collagen deposition (bone marrow organoids): significantly reduced
TGFβ-induced αSMA expression (bone marrow organoids): significantly reduced

TGFβ
expression of α-smooth muscle actin (α-SMA) and collagen I (COL1A1), staining (bone marrow organoids; 72-hours of stimulation, compared to an untreated control): increase in the expression
canonical fibrosis markers by qRT PCR (bone marrow organoids; various concentrations of TGFβ for 72 hours): dose dependent increase

Cc1sc2c(c1C)C(c1ccc(Cl)cc1)=N[C@@H](CC(=O)OC(C)(C)C)c1nnc(C)n1-2 [JQ1]
TGFβ-induced collagen deposition (bone marrow organoids): significantly reduced
TGFβ-induced αSMA expression (bone marrow organoids): significantly reduced
COL1A1 level, immunofluorescence (MF-patient organoids): significant reductions
αSMA level, immunofluorescence (MF-patient organoids): significantly reduced

B1: VEGFC: Vascular Endothelial Growth Factor C (Stem Cell Technologies), growth factor supplemented into medium (protein, UniProt P49767 112-227, looked up)
Vascular endothelial growth …: AHYNTEILKSIDNEWRKTQCMPREVCIDVGKEFGVATNTFFKPPCVSVYRCGGCCNSEGLQCMNTSTSYLSKTLFEITVPLSQGPKPVTISFANHTSCRCMSKLDVYRQVHSIIRR
CD34 expression of organoid vessels, immunofluorescence (organoid endothelium; VEGFA+C treated compared to VEGFA): induces vessels in the organoid that maintain the expression of CD34
expression of adhesion molecules and hematopoietic regulatory factors (VEGFR3, VCAM1, VLA4, FGF4, CXCR4) in endothelial cells (organoid endothelium; VEGFC added to VEGFA, compared to VEGFA or VEGFC alone): improved the expression
